From patent publication US12721856B2, “Psilocybin compositions, methods of making and methods of using the same” (priority 2021, dated 2026)
In brackets after ≈: the same amount, converted by molar mass.

Test: Solubility in water
Format: physicochemical
From the text: The psilocybin in the form Polymorph A or A′ has the general properties illustrated in Table 5 below: […]

CN(C)CCc1c[nH]c2cccc(OP(=O)(O)O)c12 [Psilocybin]
solubility: ~15 mg/mL (≈ 52.8 mM)
